The text below walks through data of patent US5472951A, “Stabilizer for phospholipid vesicles” (Chiba Flour Milling Co., Ltd., priority 1992, dated 1995).

Data set [1] in a line: change of turbidity at 500 nm with time on standing at room temperature (FIG. 1). The following applies: 0.5% by weight. The data set is classed as physicochemical. How it is done: The dispersion stability of the vesicle is evaluated by measuring the change with time of the absorbance (turbidity) with a spectrophotometer at a wavelength of 500 to 800 nm of the gel-filtered dispersion which is left standing at room temperature. Otherwise, the dispersion stability of the vesicle can be measured by the viscosity of the vesicle dispersion with a rotating viscometer, or microscopic observation by electron microscopy.
The ability of the oligosaccharide lipid of the present invention, namely of MPDSG, for stabilizing a vesicle was evaluated as follows. 3 mg of MPDSG and 100 mg of dipalmitoyl phosphatidylcholine (hereinafter referred to "DPPC") as a phospholipid were dissolved in methanol. The methanol was evaporated by use of a rotary evaporator to form a thin film on the inside wall of an eggplant shape flask. Thereto, 5 ml of pure water and several glass beads were added, and the content of the flask was agitated at 60° C. by means of a vortex mixer to form a whitish turbid liquid. This whitish turbid liquid was treated with an extruder. […]
(§1) The stability of the vesicle dispersion which had been passed through the 0.05 μm filter was evaluated by measuring the change of absorbance (turbidity) at 500 nm with time on standing at room temperature by means of a UV-visible light spectrophotometer.

Data set [2] is described as follows: introduction ratio into the vesicle (phenol-sulfuric acid method). It is filed as physicochemical. Particulars: 3 mg MPDSG per 100 mg DPPC; dispersion diluted to 0.5% by weight, gel filtration. How it is done:
(§2) The ratio of introduction of the stabilizer into the vesicles is determined by treating the dispersion of the vesicles by gel filtration or ultracentrifuge to remove the superfluous stabilizer which has not been introduced into the vesicles, and quantitatively determining saccharide in respective fractions by a phenol-sulfuric acid method. The stabilizer of the present invention, when employed in an amount of from 2 to 10 mol %, is introduced into the vesicles in a ratio of 90% or more.
as §1
2.4 mg of DOMG prepared in the same manner as in Example 11 was dissolved in 1 ml of chloroform. This solution was mixed with a solution of 100 mg of DPPC in 5 ml of chloroform, thereby DOMG being 2 mol % of DPPC. The solution mixture was evaporated by means of an evaporator to form a thin film on the inside wall of an eggplant-shape flask. Then 10 ml of pure water was added thereto so as to obtain a concentration of 1.0% by weight of the vesicles. The mixture was stirred with glass beads by means of a vortex mixer, and subsequently treated by an extruder to prepare a dispersion of DOMG-modified DPPC vesicles having controlled diameters of particles. A portion of the resulting dispersion was diluted to a fivefold volume with pure water to prepare a dispersion having vesicle concentration of 0.2% by weight.
The two dispersions of the DOMG-modified vesicles having concentrations of 1.0% by weight and 0.2% by weight were left standing at 4° C. for 24 hours, and were ultracentrifuged (300000 G, 60 minutes). The free DOMG in the supernatant was determined by a phenol-sulfuric acid method, and therefrom the ratio of introduction DOMG to the vesicles was calculated.
As the results, the introduction ratios were 94.3%, and 77.0% respectively at the vesicle concentrations of 1.0% by weight and 0.2% by weight. The results are shown in Table 4 together with the results of Comparative Examples 6 and 7 described later in which an oligosaccharide derivative was employed.
In general terms: Size exclusion chromatography separates by hydrodynamic size, large species first.

Data set [3] is described as follows: introduction ratio into mixed lipid vesicles. It is filed as physicochemical. The following applies: DPPC:cholesterol:distearyl phosphatidic acid:MPDSG 10:9:0.9:0.5. How it is done: as §2
The effect of the LPMS of the present invention on stabilization of vesicles was evaluated as follows. A powdery lipid mixture containing LPMS was prepared from dimyristoyl phosphatidylcholine, cholesterol, myristic acid, and LPMS (in molar ratio of 7:7:2:0.3) was prepared by freeze-drying. 100 ml of saline was added to 10 g of the above powdery lipid mixture, and the mixture was stirred at 4° C. for 24 hours to prepare a liquid dispersion. […] The introduction ratio of the LPMS was 85% according to saccharide determination of the supernatant liquid after centrifugation.
500 mg of a powdery lipid mixture containing MPDSG of the present invention was prepared from DPPC, cholesterol, distearyl phosphatidic acid, and MPDSG (in molar ratio of 10:9:0.9:0.5) was prepared by freeze-drying from benzene. […]

Data set [4] is described as follows: viscosity of vesicle dispersion on addition of calcium ion (rotating viscometer). The data set is classed as physicochemical. Particulars: 5 mM calcium chloride. How it is done:
The stability of the vesicles was evaluated as below. The precipitate of the vesicles prepared by centrifuge was dispersed again into saline by a vortex mixer. To this sample, calcium chloride (as calcium ion) was added to be 5 mM, and the viscosity of the dispersion was measured with a rotating viscometer (Vismetron VS-AK). The viscosity of 5 cp was not changed by addition of the calcium ion.
To this dispersion, calcium chloride (as calcium ion) was added to be 5 mM, and the viscosity of the dispersion was measured with a rotating viscometer (Vismetron VS-AK).
To this dispersion, calcium chloride (as calcium ion) was added to be 5 mM, and the viscosity of the dispersion was measured with a rotating viscometer (Vismetron VS-AK). The viscosity of 5 cp was not changed by addition of the calcium ion. On the contrary, the dispersion of the vesicles prepared from powdery lipid mixture not containing DACOA (DPPC:cholesterol:distearylphosphatidic acid=10:9:0.9 in molar ratio) aggregated immediately on addition of calcium ion because of negative charge on the surface of the vesicle, causing the viscosity rise up to 11 cp.
The stability of the dispersion of the DOLG-modified vesicles having adjusted particle diameters was evaluated by addition of 5 mM calcium chloride and observing the viscosity change. The viscosity was measured at 37° C. by a rotating viscometer. […] On the contrary, a dispersion of unmodified vesicles prepared from a powdery lipid mixture containing no DOLG (DPPC:cholesterol:stearic acid=7:7:2 in molar ratio) caused immediate aggregation of the vesicles on addition of calcium ion in the same manner as above because of the negative charge on the surface of the vesicle, and the viscosity increased up to 11 cp. Accordingly, the sufficient effect of the DOLG, a vesicle stabilizer of the present invention, was confirmed in inhibiting the aggregation of vesicles by calcium ion.

The nature of data set [5]: particle diameter of modified vesicles. The data set is classed as physicochemical.
The test system of data set [6] is washed human RBC (red blood cell). Particulars: washed red blood cells, 2 h, pH 7.4.
For data set [7] the following is noted: rat, in vivo.

“maltopentaose distearyl glycerol [MPDSG]”: in data set [1], the “inhibition of aggregation (in words)” value is recorded as “little turbidity increase later, showing the inhibition of the aggregation”. The “turbidity rise in comparison with that of the unmodified vesicle” value in data set [1] was “about 7%”. Also, the “introduction ratio into the vesicle” value in data set [2] was found to be 99%. Further, the introduction ratio in data set [3] was found to be 98%. In addition, the “inhibition of aggregation of vesicles by calcium ion (in words)” value in data set [4] is recorded as “inhibited nearly completely”. In addition, the “viscosity change on addition of calcium ion (in words)” value in data set [4] is on record as “not changed”. Further, in data set [4] (Vismetron VS-AK), the “viscosity of the dispersion with calcium ion” value came out at 5 cp. Besides, the average diameter in data set [5] (DPPC vesicle, 0.05 μm extruder, particle size analyzer) is listed as 57±12 nm; in data set [5] (DPPC vesicle, 0.05 μm extruder, transmission electron microscope with negative stain) it was 55±10 nm; in data set [5] (hemoglobin-enclosing vesicles, microfluidizer, before 0.2 μm extrusion), 300±98 nm. For the same substance, the average particle diameter in data set [5] (hemoglobin-enclosing vesicles after 0.2 μm extrusion and gel filtration) turned out to be 203±50 nm; in data set [5] (mixed lipid vesicles, 0.2 μm filter by extruder), 200 nm. In addition, the hemolysis in data set [6] is on record as 5%. The “average half-life from the blood stream” value in data set [7] was determined as 38 h.
